Data published in PubChem BioAssay AID248 (DTP/NCI, 2004).
Where “and” joins values, the source holds several entries; their conditions need not be identical. Identical values can stand only once. Toxic doses and inconclusive results are not listed. Cut-off read from the data, not from the text of the source: active = T/C of 150% or more; inactive = T/C below 125%.

System: L1210 leukemia ip in BDF1 mice, survival T/C
Experiment: NCI In Vivo Anticancer Drug Screen. Data for tumor model L1210 Leukemia (intraperitoneal) in B6D2F1 (BDF1) mice
Conditions: endpoint: mean survival time, higher = longer survival
Method in brief: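 Tumor was transplanted into mice, which were then dosed with test compound or vehicle alone. Survival was recorded for each group, and the treated figure was expressed relative to the control figure.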

[1] = dose: 100.0 mg/kg/injection, schedule: Q01DX001 (ip), vehicle: carboxymethylcellulose (CMC)
[2] = dose: 200.0 mg/kg/injection, schedule: Q01DX001 (ip), vehicle: carboxymethylcellulose (CMC)
[3] = dose: 400.0 mg/kg/injection, schedule: Q01DX001 (ip), vehicle: carboxymethylcellulose (CMC)
[4] = dose: 100.0 mg/kg/injection, schedule: Q01DX009 (ip), vehicle: saline with Tween-80
[5] = dose: 100.0 mg/kg/injection, schedule: Q04DX003 (ip), vehicle: saline with Tween-80
[6] = dose: 200.0 mg/kg/injection, schedule: Q01DX009 (ip), vehicle: saline with Tween-80
[7] = dose: 200.0 mg/kg/injection, schedule: Q04DX003 (ip), vehicle: saline with Tween-80
[8] = dose: 400.0 mg/kg/injection, schedule: Q01DX009 (ip), vehicle: saline with Tween-80
[9] = dose: 400.0 mg/kg/injection, schedule: Q04DX003 (ip), vehicle: saline with Tween-80
[10] = dose: 100.0 mg/kg/injection, schedule: Q01DX009 (ip), vehicle: other
[11] = dose: 100.0 mg/kg/injection, schedule: Q04DX003 (ip), vehicle: other
[12] = dose: 200.0 mg/kg/injection, schedule: Q01DX009 (ip), vehicle: other
[13] = dose: 200.0 mg/kg/injection, schedule: Q04DX003 (ip), vehicle: other
[14] = dose: 400.0 mg/kg/injection, schedule: Q04DX003 (ip), vehicle: other

Measured: T/C

C(=N\OCc1ccccc1)/c1ccccn1
inactive: dose: 100.0 mg/kg/injection, schedule: Q01DX009 (ip), vehicle: Klucel (hydroxypropylcellulose) (HPC) 94 % of control | dose: 100.0 mg/kg/injection, schedule: Q04DX003 (ip), vehicle: Klucel (hydroxypropylcellulose) (HPC) 96 % of control | dose: 200.0 mg/kg/injection, schedule: Q01DX009 (ip), vehicle: Klucel (hydroxypropylcellulose) (HPC) 101 % of control | dose: 200.0 mg/kg/injection, schedule: Q04DX003 (ip), vehicle: Klucel (hydroxypropylcellulose) (HPC) 97 % of control | dose: 400.0 mg/kg/injection, schedule: Q01DX009 (ip), vehicle: Klucel (hydroxypropylcellulose) (HPC) 100 % of control | dose: 400.0 mg/kg/injection, schedule: Q04DX003 (ip), vehicle: Klucel (hydroxypropylcellulose) (HPC) 103 % of control

OCC(O)COc1ccnc2ccccc12 (stereo not drawn)
inactive: dose: 100.0 mg/kg/injection, schedule: Q01DX009 (ip), vehicle: acetone 105 % of control | dose: 200.0 mg/kg/injection, schedule: Q01DX009 (ip), vehicle: acetone 97 % of control | dose: 400.0 mg/kg/injection, schedule: Q01DX009 (ip), vehicle: acetone 97 % of control

S=C([S][Sn]([c]1ccccc1)([c]1ccccc1)[c]1ccccc1)N(c1ccccc1)c1ccccc1
inactive: dose: 100.0 mg/kg/injection, schedule: Q01DX001 (ip), vehicle: steriod suspending solution 89 % of control | dose: 200.0 mg/kg/injection, schedule: Q01DX001 (ip), vehicle: steriod suspending solution 98 % of control | dose: 400.0 mg/kg/injection, schedule: Q01DX001 (ip), vehicle: steriod suspending solution 104 % of control

O=[N+]([O-])c1ccc2c(c1)/C(=N\O)c1cc(F)ccc1-2
inactive: [1] 103 % of control | [2] 105 % of control | [3] 98 % of control

C=CC1(C)CCC(=O)N1 (stereo not drawn)
inactive: dose: 75.0 mg/kg/injection, schedule: Q04DX003 (ip), vehicle: other 104 % of control | dose: 150.0 mg/kg/injection, schedule: Q04DX003 (ip), vehicle: other 98 % of control | dose: 300.0 mg/kg/injection, schedule: Q04DX003 (ip), vehicle: other 98 % of control

c1csc(-c2nc3ccccc3s2)c1
inactive: [4] 98 % of control | [5] 101 % of control | [6] 100 % of control | [7] 98 % of control | [8] 94 % of control | [9] 93 % of control

OC1CCC2=C(C1)C1CCC2C1 (stereo not drawn)
inactive: dose: 12.5 mg/kg/injection, schedule: Q04DX003 (ip), vehicle: saline with Tween-80 96 % of control | dose: 25.0 mg/kg/injection, schedule: Q04DX003 (ip), vehicle: saline with Tween-80 89 % of control | dose: 50.0 mg/kg/injection, schedule: Q04DX003 (ip), vehicle: saline with Tween-80 98 % of control

Cn1ncc(C(=O)O)c1NN=O
inactive: dose: 50.0 mg/kg/injection, schedule: Q04DX003 (ip), vehicle: saline 104 % of control | [1] 106 % of control | dose: 100.0 mg/kg/injection, schedule: Q04DX003 (ip), vehicle: saline 105 % of control | [2] 108 % of control | dose: 200.0 mg/kg/injection, schedule: Q04DX003 (ip), vehicle: saline 96 % of control | [3] 102 % of control

CC1=NC(C#N)=C(C#N)N=C(C)C1
inactive: dose: 6.25 mg/kg/injection, schedule: Q01DX009 (ip), vehicle: Klucel (hydroxypropylcellulose) (HPC) 107 % of control | dose: 12.5 mg/kg/injection, schedule: Q01DX009 (ip), vehicle: Klucel (hydroxypropylcellulose) (HPC) 98 % of control | dose: 25.0 mg/kg/injection, schedule: Q01DX009 (ip), vehicle: Klucel (hydroxypropylcellulose) (HPC) 119 % of control | dose: 50.0 mg/kg/injection, schedule: Q01DX009 (ip), vehicle: Klucel (hydroxypropylcellulose) (HPC) 107 % of control

O=c1[nH][nH]c2ccccc12
inactive: dose: 31.2 mg/kg/injection, schedule: Q01DX Z (ip), vehicle: other 88 % of control | dose: 125.0 mg/kg/injection, schedule: Q01DX Z (ip), vehicle: other 88 % of control | dose: 250.0 mg/kg/injection, schedule: Q01DX Z (ip), vehicle: other 92 % of control

COc1ccc2[nH]ccc2c1
inactive: [10] 90 % of control | [11] 92 % of control | [12] 104 % of control | [13] 105 % of control | dose: 400.0 mg/kg/injection, schedule: Q01DX009 (ip), vehicle: other 88 % of control | [14] 94 % of control

COC(=O)C(CSCSC)NC(=O)/C=C\c1ccccc1 (stereo not drawn)
inactive: [4] 88 % of control | [5] 97 % of control | [6] 88 % of control | [7] 97 % of control | [8] 96 % of control | [9] 94 % of control

O=C1OC2C(I)C3CC1C2C3 (stereo not drawn)
inactive: dose: 50.0 mg/kg/injection, schedule: Q01DX009 (ip), vehicle: saline with Tween-80 96 % of control | [4] 95 % of control

CCCCOC(=O)Nc1cccc(O)c1
inactive: [4] 92 % of control | [6] 87 % of control

N#Cc1ccc(/C=N/N2CCN(/N=C/c3ccc(C#N)cc3)CC2)cc1
inactive: [1] 96 % of control | [2] 91 % of control | [3] 94 % of control

c1ccc(C2(C3(c4ccccc4)SCCCS3)CN2)cc1 (stereo not drawn)
inactive: dose: 100.0 mg/kg/injection, schedule: Q01DX001 (ip), vehicle: Klucel (hydroxypropylcellulose) (HPC) 101 % of control | dose: 200.0 mg/kg/injection, schedule: Q01DX001 (ip), vehicle: Klucel (hydroxypropylcellulose) (HPC) 97 % of control

O=C1c2cccc3c([N+](=O)[O-])ccc(c23)C(=O)N1Cc1cccnc1
inactive: dose: 25.0 mg/kg/injection, schedule: Q04DX002 (ip), vehicle: Klucel (hydroxypropylcellulose) (HPC) 106 % of control | dose: 50.0 mg/kg/injection, schedule: Q04DX002 (ip), vehicle: Klucel (hydroxypropylcellulose) (HPC) 100 % of control | dose: 100.0 mg/kg/injection, schedule: Q04DX002 (ip), vehicle: Klucel (hydroxypropylcellulose) (HPC) 103 % of control and 86 % of control | dose: 200.0 mg/kg/injection, schedule: Q04DX002 (ip), vehicle: Klucel (hydroxypropylcellulose) (HPC) 101 % of control

O=C(O)c1ccc([N+](=O)[O-])o1
inactive: [4] 89 % of control | [11] 100 % of control | [6] 97 % of control | [13] 96 % of control

NC(=O)c1[nH]cnc1/N=N/N1CCCC1
inactive: dose: 125.0 mg/kg/injection, schedule: Q01DX Z (ip), vehicle: carboxymethylcellulose (CMC) 103 % of control | dose: 375.0 mg/kg/injection, schedule: Q01DX Z (ip), vehicle: carboxymethylcellulose (CMC) 105 % of control

COc1ccc(NC(=O)Nc2cccc(Cl)c2C)cc1
inactive: dose: 100.0 mg/kg/injection, schedule: Q01DX009 (sc), vehicle: olive oil, sesame oil, peanut oil 100 % of control | dose: 100.0 mg/kg/injection, schedule: Q04DX003 (sc), vehicle: olive oil, sesame oil, peanut oil 100 % of control | dose: 200.0 mg/kg/injection, schedule: Q01DX009 (sc), vehicle: olive oil, sesame oil, peanut oil 96 % of control | dose: 200.0 mg/kg/injection, schedule: Q04DX003 (sc), vehicle: olive oil, sesame oil, peanut oil 98 % of control | dose: 400.0 mg/kg/injection, schedule: Q01DX009 (sc), vehicle: olive oil, sesame oil, peanut oil 100 % of control | dose: 400.0 mg/kg/injection, schedule: Q04DX003 (sc), vehicle: olive oil, sesame oil, peanut oil 101 % of control

CCOC(=O)C1C2C=CC=CC(=O)C21 (stereo not drawn)
inactive: [10] 102 % of control | [11] 95 % of control | [12] 95 % of control | [13] 95 % of control | [14] 105 % of control

COc1cc(C#N)ccc1O
inactive: dose: 100.0 mg/kg/injection, schedule: Q01DX009 (ip), vehicle: gum acacia 106 % of control | dose: 100.0 mg/kg/injection, schedule: Q04DX003 (ip), vehicle: gum acacia 103 % of control | dose: 200.0 mg/kg/injection, schedule: Q01DX009 (ip), vehicle: gum acacia 106 % of control | dose: 200.0 mg/kg/injection, schedule: Q04DX003 (ip), vehicle: gum acacia 100 % of control | dose: 400.0 mg/kg/injection, schedule: Q01DX009 (ip), vehicle: gum acacia 90 % of control | dose: 400.0 mg/kg/injection, schedule: Q04DX003 (ip), vehicle: gum acacia 94 % of control

O=N[O-].O=N[O-].O=N[O-].O=N[O-].[Co+2].[NH2-].[NH2-]
inactive: [5] 115 % of control | [7] 118 % of control

C[N+]1([O-])C2CCC1CC(OC(=O)C(O)c1ccccc1)C2 (stereo not drawn)
inactive: dose: 75.0 mg/kg/injection, schedule: Q01DX001 (ip), vehicle: saline 110 % of control | dose: 150.0 mg/kg/injection, schedule: Q01DX001 (ip), vehicle: saline 100 % of control | dose: 300.0 mg/kg/injection, schedule: Q01DX001 (ip), vehicle: saline 95 % of control
